PubChem BioAssay AID1195 (EPA DSSTox, 2008)

Tested on: human maximum recommended daily dose, FDA database
Assay: DSSTox (FDAMDD) FDA Maximum (Recommended) Daily Dose Database
Details: hits give low values
Outline: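 MRDD values come from clinical trials with daily oral dosing, usually for 3–12 months, for the average adult, in mg/day converted to mg/kg-bw/day assuming 60 kg. Antineoplastic mg/m2 doses are divided by 37. Activity score maps log10(1/MRDD mmol) onto 1–100.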

[1] = TherapeuticCategory: antihypertensive
[2] = TherapeuticCategory: antineoplastic
[3] = TherapeuticCategory: antibacterial
[4] = TherapeuticCategory: antihistaminic
[5] = TherapeuticCategory: anxiolytic
[6] = TherapeuticCategory: anticonvulsant
[7] = TherapeuticCategory: antispasmodic
[8] = TherapeuticCategory: antidiabetic
[9] = TherapeuticCategory: sedative, hypnotic
[10] = TherapeuticCategory: anticholinergic
[11] = TherapeuticCategory: antihyperlipoproteinemic
[12] = TherapeuticCategory: antidepressant
[13] = TherapeuticCategory: diuretic, antihypertensive
[14] = TherapeuticCategory: antipsychotic

CN1CCN(CCC=C2c3ccccc3Sc3ccc(S(=O)(=O)N(C)C)cc32)CC1
maximum recommended daily dose (mmol/kg-bw/day) (TherapeuticCategory: antipsychotic, dopamine receptor antagonist): 0.00113

CCCCC(=O)N(Cc1ccc(-c2ccccc2-c2nn[nH]n2)cc1)[C@@H](C(=O)O)C(C)C
maximum recommended daily dose (mmol/kg-bw/day) [1]: 0.0122

Nc1ccc(S(=O)(=O)c2ccc(N)cc2)cc1
maximum recommended daily dose (mmol/kg-bw/day) (TherapeuticCategory: antibacterial, dermatitis herpetiformis suppressant): 0.0201

CC(C)(C)c1cc(O)ccc1O
maximum recommended daily dose (mmol/kg-bw/day) (TherapeuticCategory: antioxidant): 0.0012

C[C@H]1CC2=CC(=O)CC[C@]2(C)[C@H]2CC[C@@]3(C)[C@@H](CC[C@]3(C)O)[C@H]12
maximum recommended daily dose (mmol/kg-bw/day) [2]: 0.0158

N[C@@H]1[C@@H](O)[C@@H](O[C@@H]2[C@@H](O)[C@H](O[C@H]3O[C@H](CO)[C@@H](O)[C@H](O)[C@H]3N)[C@@H](N)C[C@H]2N)O[C@H](CO)[C@H]1O
maximum recommended daily dose (mmol/kg-bw/day) [3]: 0.031

COc1ccc([C@@H]2Sc3ccccc3N(CCN(C)C)C(=O)[C@@H]2OC(C)=O)cc1
maximum recommended daily dose (mmol/kg-bw/day) (TherapeuticCategory: antianginal): 0.0193

NC(Cc1cc(I)c(Oc2cc(I)c(O)c(I)c2)c(I)c1)C(=O)O (stereo not drawn)
maximum recommended daily dose (mmol/kg-bw/day) (TherapeuticCategory: thyroid hormone, antihyperlipoproteinemic): 6.44e-06

C=C1c2cccc(O)c2C(O)=C2C(=O)[C@]3(O)C(O)=C(C(N)=O)C(=O)[C@@H](N(C)C)[C@@H]3[C@@H](O)[C@H]12
maximum recommended daily dose (mmol/kg-bw/day) [3]: 0.0339

CC(CCc1ccccc1)NCC(O)c1ccc(O)c(C(N)=O)c1 (stereo not drawn)
maximum recommended daily dose (mmol/kg-bw/day) [1]: 0.122

CNCCc1ccccn1
maximum recommended daily dose (mmol/kg-bw/day) (TherapeuticCategory: vasodilator): 0.00587

CC[C@H]1OC(=O)[C@H](C)[C@@H](O[C@H]2C[C@@](C)(OC)[C@@H](O)[C@H](C)O2)[C@H](C)[C@@H](O[C@@H]2O[C@H](C)C[C@H](N(C)C)[C@H]2O)[C@](C)(O)C[C@@H](C)C(=O)[C@H](C)[C@@H](O)[C@]1(C)O
maximum recommended daily dose (mmol/kg-bw/day) [3]: 0.0909

COc1cc([C@@H]2c3cc4c(cc3C(O[C@@H]3O[C@@H]5COC(c6cccs6)O[C@H]5[C@H](O)[C@H]3O)C3COC(=O)[C@@H]32)OCO4)cc(OC)c1O (stereo partly drawn)
maximum recommended daily dose (mmol/kg-bw/day) [2]: 0.0107

CN(C)CCC(c1ccc(Br)cc1)c1ccccn1 (stereo not drawn)
maximum recommended daily dose (mmol/kg-bw/day) [4]: 0.00125

CNC1(C)C2CCC(C2)C1(C)C (stereo not drawn)
maximum recommended daily dose (mmol/kg-bw/day) [1]: 0.00249

OC1(c2ccc(Cl)cc2)c2ccccc2C2=NCCN21 (stereo not drawn)
maximum recommended daily dose (mmol/kg-bw/day) (TherapeuticCategory: anorexic): 0.000117

O=C1Nc2ccc(Cl)cc2C(c2ccccc2Cl)=NC1O (stereo not drawn)
maximum recommended daily dose (mmol/kg-bw/day) [5]: 0.00052

C=C1/C(=C\C=C2/CCC[C@]3(C)[C@@H]([C@H](C)CCCC(C)(C)O)CC[C@@H]23)C[C@@H](O)C[C@@H]1O
maximum recommended daily dose (mmol/kg-bw/day) (TherapeuticCategory: calcium regulator): 1.2e-07

CCC1(C)CC(=O)NC1=O (stereo not drawn)
maximum recommended daily dose (mmol/kg-bw/day) [6]: 0.118

O=C(O)[C@H](O)[C@@H](O)C(=O)O
maximum recommended daily dose (mmol/kg-bw/day) (TherapeuticCategory: none): 0.2

NC1=NC(=O)C(c2ccccc2)O1 (stereo not drawn)
maximum recommended daily dose (mmol/kg-bw/day) (TherapeuticCategory: CNS stimulant): 0.0107

O=C(OC1CC2CCC(C1)[N+]21CCCC1)C(O)(c1ccccc1)c1ccccc1 (stereo not drawn)
maximum recommended daily dose (mmol/kg-bw/day) [7]: 0.000467

CCCNC(=O)NS(=O)(=O)c1ccc(Cl)cc1
maximum recommended daily dose (mmol/kg-bw/day) [8]: 0.0452

C#C[C@]1(O)CC[C@H]2[C@@H]3CCc4cc(OC)ccc4[C@H]3CC[C@@]21C
maximum recommended daily dose (mmol/kg-bw/day) (TherapeuticCategory: estrogen): 2.67e-06

CC(C)(N)Cc1ccccc1Cl
maximum recommended daily dose (mmol/kg-bw/day) (TherapeuticCategory: anorexic): 0.00454

C[C@H]1O[C@@H](O[C@H]2CC[C@@]3(C)[C@H](CC[C@@H]4[C@@H]3C[C@@H](O)[C@]3(C)[C@@H](C5=CC(=O)OC5)CC[C@]43O)C2)C[C@H](O)[C@@H]1O[C@H]1C[C@H](O)[C@H](O[C@H]2C[C@H](O)[C@H](O[C@@H]3O[C@H](CO)[C@@H](O)[C@H](O)[C@H]3O)[C@@H](C)O2)[C@@H](C)O1
maximum recommended daily dose (mmol/kg-bw/day) (TherapeuticCategory: cardiotonic): 8.48e-08

CCCCCCCCCC(=O)OCCN1CCN(CCCN2c3ccccc3Sc3ccc(C(F)(F)F)cc32)CC1
maximum recommended daily dose (mmol/kg-bw/day) (TherapeuticCategory: antispsychotic): 0.000563

CN1CCCC(=C(c2cccs2)c2cccs2)C1
maximum recommended daily dose (mmol/kg-bw/day) (TherapeuticCategory: antitussive): 0.0182

Clc1cccc(Cl)c1NC1=NCCN1
maximum recommended daily dose (mmol/kg-bw/day) [1]: 0.000174

Nc1ccc(C(=O)NCC(=O)O)cc1
maximum recommended daily dose (mmol/kg-bw/day) (TherapeuticCategory: anti inflammatory, antifungal): 0.0515

CCOC(=O)[C@H](CCc1ccccc1)N[C@@H](C)C(=O)N1Cc2cc(OC)c(OC)cc2C[C@H]1C(=O)O
maximum recommended daily dose (mmol/kg-bw/day) (TherapeuticCategory: antihypertensive, ACE inhibitor): 0.00167

NC(=O)CC[C@H](N)C(=O)O
maximum recommended daily dose (mmol/kg-bw/day) (TherapeuticCategory: none): 1.37

CCC1(C2=CCCCC2)C(=O)NC(=O)NC1=O
maximum recommended daily dose (mmol/kg-bw/day) [9]: 0.0282

CN1[C@@H](CC(=O)c2ccccc2)CCC[C@H]1C[C@H](O)c1ccccc1
maximum recommended daily dose (mmol/kg-bw/day) (TherapeuticCategory: respiratory stimulant): 0.000495

C[N+]1(C)CCN(CC(O)(c2ccccc2)C2CCCCC2)CC1 (stereo not drawn)
maximum recommended daily dose (mmol/kg-bw/day) [10]: 0.0039

CC1=C(/C=C/C(C)=C/C=C/C(C)=C/CO)C(C)(C)CCC1
maximum recommended daily dose (mmol/kg-bw/day) (TherapeuticCategory: antixerophthalmic vitamin): 0.0032

CN(C)C(=O)CCCOC(=O)C(C)(C)Oc1ccc(Cl)cc1
maximum recommended daily dose (mmol/kg-bw/day) [11]: 0.137

CCN(CC)C(C)C(=O)c1ccccc1 (stereo not drawn)
maximum recommended daily dose (mmol/kg-bw/day) (TherapeuticCategory: anorexic): 0.00609

CC(C)(C)NC(=O)[C@H]1CC[C@H]2[C@@H]3CC[C@H]4NC(=O)C=C[C@]4(C)[C@H]3CC[C@]12C
maximum recommended daily dose (mmol/kg-bw/day) (TherapeuticCategory: prostatic hypertrophy treatment): 0.000224

CCCC(=O)O[C@H]1[C@H](C)O[C@@H](O[C@H]2[C@H](N(C)C)[C@@H](O)[C@H](O[C@H]3[C@@H](CC=O)C[C@@H](C)[C@@H](O)/C=C/C=C/C[C@@H](C)OC(=O)C[C@@H](O)[C@@H]3OC)O[C@@H]2C)C[C@@]1(C)OC(=O)CC
maximum recommended daily dose (mmol/kg-bw/day) [3]: 0.0242

Cc1ccsc1C(=CCCN1CCC[C@@H](C(=O)O)C1)c1sccc1C
maximum recommended daily dose (mmol/kg-bw/day) [6]: 0.00285

CCNCC(O)c1cccc(O)c1 (stereo not drawn)
maximum recommended daily dose (mmol/kg-bw/day) (TherapeuticCategory: antihypotensive): 0.0046

CN1[C@@H]2CC[C@H]1CC(OC(=O)C(O)c1ccccc1)C2 (stereo partly drawn)
maximum recommended daily dose (mmol/kg-bw/day) [10]: 0.0018

CC(C)(C(=O)c1cccnc1)c1cccnc1
maximum recommended daily dose (mmol/kg-bw/day) (TherapeuticCategory: diagnostic aid): 0.331

Cc1ccccc1C(OCCN(C)C)c1ccccc1 (stereo not drawn)
maximum recommended daily dose (mmol/kg-bw/day) (TherapeuticCategory: skeletal muscle relaxant, antihistiminic): 0.0248

CCCCC[C@](C)(O)/C=C/[C@@H]1[C@@H](C/C=C\CCCC(=O)O)[C@@H](O)C[C@H]1O
maximum recommended daily dose (mmol/kg-bw/day) (TherapeuticCategory: oxytocic): 0.000543

NC(=O)N1c2ccccc2C=Cc2ccccc21
maximum recommended daily dose (mmol/kg-bw/day) (TherapeuticCategory: analgesic, anticonvulsant): 0.113

CN(C)CCCN1c2ccccc2CCc2ccc(Cl)cc21
maximum recommended daily dose (mmol/kg-bw/day) [12]: 0.0132

CC(CN(C)C)CN1c2ccccc2CCc2ccccc21 (stereo not drawn)
maximum recommended daily dose (mmol/kg-bw/day) [12]: 0.0113

Nc1nc(N)c2nc(CNc3ccc(C(=O)NC(CCC(=O)O)C(=O)O)cc3)cnc2n1 (stereo not drawn)
maximum recommended daily dose (mmol/kg-bw/day) (TherapeuticCategory: rodenticide): 1.89e-05

CC(C)(O/N=C(\C(=O)N[C@@H]1C(=O)N2C(C(=O)[O-])=C(C[n+]3ccccc3)CS[C@H]12)c1csc(N)n1)C(=O)O
maximum recommended daily dose (mmol/kg-bw/day) [3]: 0.243

CCCC(CCC)C(N)=O
maximum recommended daily dose (mmol/kg-bw/day) [6]: 0.232

COCCOc1cnc(NS(=O)(=O)c2ccccc2)nc1
maximum recommended daily dose (mmol/kg-bw/day) [8]: 0.108

O=C1N(Cc2ccccc2)C2C[S+]3CCCC3C2N1Cc1ccccc1 (stereo not drawn)
maximum recommended daily dose (mmol/kg-bw/day) [1]: 0.000112

C[C@]12C=CC(=O)C=C1C(Cl)=C[C@@H]1[C@@H]2[C@@H](O)C[C@@]2(C)[C@H]1CC[C@]2(O)C(=O)CO
maximum recommended daily dose (mmol/kg-bw/day) (TherapeuticCategory: glucocorticoid): 0.000529

c1ccc2c(c1)Sc1ccccc1N2CC1CN2CCC1CC2 (stereo not drawn)
maximum recommended daily dose (mmol/kg-bw/day) [4]: 0.000518

CN1C(=O)CC(C)(c2ccccc2)C1=O (stereo not drawn)
maximum recommended daily dose (mmol/kg-bw/day) [6]: 0.0984

Cc1ccccc1-n1c(CF)nc2ccc(N)cc2c1=O
maximum recommended daily dose (mmol/kg-bw/day) (TherapeuticCategory: skeletal muscle relaxant): 0.00353

C[C@@H]1CN(c2c(F)c(N)c3c(=O)c(C(=O)O)cn(C4CC4)c3c2F)C[C@H](C)N1
maximum recommended daily dose (mmol/kg-bw/day) [3]: 0.017

NS(=O)(=O)c1cc2c(cc1C(F)(F)F)NC(Cc1ccccc1)NS2(=O)=O (stereo not drawn)
maximum recommended daily dose (mmol/kg-bw/day) [13]: 0.00079

C=CCC1(C(C)CC)C(=O)NC(=O)NC1=O (stereo not drawn)
maximum recommended daily dose (mmol/kg-bw/day) [9]: 0.0148

C=C1CC[C@@]2(O)[C@H]3Cc4ccc(O)c5c4[C@@]2(CCN3CC2CC2)[C@H]1O5
maximum recommended daily dose (mmol/kg-bw/day) (TherapeuticCategory: narcotic antagonist): 0.00245

O=P(O)(O)OCC(O)CO (stereo not drawn)
maximum recommended daily dose (mmol/kg-bw/day) (TherapeuticCategory: none): 0.388

OCCOCCN1CCN(C2=Nc3ccccc3Sc3ccccc32)CC1
maximum recommended daily dose (mmol/kg-bw/day) [14]: 0.0347

C#C[C@]1(O)CC[C@H]2[C@@H]3[C@H](C)CC4=C(CCC(=O)C4)[C@H]3CC[C@@]21C
maximum recommended daily dose (mmol/kg-bw/day) (TherapeuticCategory: treatment of menopausal syndrome): 0.000133

O=C(NCC1CCCCN1)c1cc(OCC(F)(F)F)ccc1OCC(F)(F)F (stereo not drawn)
maximum recommended daily dose (mmol/kg-bw/day) (TherapeuticCategory: antiarrhythmic): 0.0121

O=C1Nc2ccc(Cl)cc2C(c2ccccc2)=NC1O (stereo not drawn)
maximum recommended daily dose (mmol/kg-bw/day) [5]: 0.00698

CCN(CCCCOC(=O)c1ccc(OC)c(OC)c1)C(C)Cc1ccc(OC)cc1 (stereo not drawn)
maximum recommended daily dose (mmol/kg-bw/day) [7]: 0.0157

CCCOC(=O)c1ccc(O)cc1
maximum recommended daily dose (mmol/kg-bw/day) (TherapeuticCategory: pharmaceutic aid): 0.0555

NS(=O)(=O)c1cc(C2(O)NC(=O)c3ccccc32)ccc1Cl (stereo not drawn)
maximum recommended daily dose (mmol/kg-bw/day) [13]: 0.00246

COCc1c(C(C)C)nc(C(C)C)c(/C=C/[C@@H](O)C[C@@H](O)CC(=O)O)c1-c1ccc(F)cc1
maximum recommended daily dose (mmol/kg-bw/day) [11]: 1.09e-05

CN1CCN(C2=Nc3cc(Cl)ccc3Nc3ccccc32)CC1
maximum recommended daily dose (mmol/kg-bw/day) [14]: 0.0459

CCCCC[C@H](O)/C=C/[C@@H]1[C@H]2C/C(=C/CCCC(=O)O)O[C@H]2C[C@H]1O
maximum recommended daily dose (mmol/kg-bw/day) (TherapeuticCategory: platelet aggregation inhibitor): 2.84e-08
